Reference: patent US20240116948A1, “PYRIDO OXAZINE DERIVATIVES AS ALK5 INHIBITORS” (CHIESI FARMACEUTICI S.P.A., priority 2020, published 2024)
Like-named read-outs stand apart in the source and are kept apart here.

Biological target: human ALK5 (Homo sapiens (Human), UniProt P36897)
Assay: ADP-GLO Kinases assay, inhibition of ALK5 kinase activity
Format: biochemical
Procedure: The enzymatic activity of compounds of the present invention was monitored measuring the formation of ADP using the ADP-GLO Kinases assay. Following the incubation of the purified enzyme, a substrate and ATP, the produced ADP was converted into ATP, which in turn was converted into light by Ultra-Glo Luciferase. The luminescent signal positively correlated with ADP amount and kinase activity. Briefly, the kinase reaction was performed by incubating 2.6 nM of the purified, commercially available human ALK5 (recombinant TGF 31 N-term GST-tagged, 80-end), a final concentration of TGFβ1 peptide 94.5 μM (Promega, T36-58) and ultra-pure ATP (Promega V915B). The ATP concentration was set at the Km value (concentration of substrate which permits the enzyme to achieve half maximal velocity (Vmax)) of ALK5 (5 μM). All reactions/incubations were performed at 25° C. Compound and ALK5 kinase were mixed and incubated for 15 mins. Reactions were initiated by addition of ATP at a final concentration in the assay of […]. After an incubation of 150 min, the reaction was stopped, and ADP production detected with ADP-Glo kit according to manufacturer's indications. The assay was performed in 384-well format and was validated using a selection of reference compounds that was tested in 11 point concentration-response curve.
Compounds of the examples C1 and C2 were tested in the same in vitro assay described above.

[1] = Table 12, compounds classified in term of potency, ATP at Km, 25° C., read-out: ALK5 IC50

human ALK5, sequence (P36897 80-503 limits assumed): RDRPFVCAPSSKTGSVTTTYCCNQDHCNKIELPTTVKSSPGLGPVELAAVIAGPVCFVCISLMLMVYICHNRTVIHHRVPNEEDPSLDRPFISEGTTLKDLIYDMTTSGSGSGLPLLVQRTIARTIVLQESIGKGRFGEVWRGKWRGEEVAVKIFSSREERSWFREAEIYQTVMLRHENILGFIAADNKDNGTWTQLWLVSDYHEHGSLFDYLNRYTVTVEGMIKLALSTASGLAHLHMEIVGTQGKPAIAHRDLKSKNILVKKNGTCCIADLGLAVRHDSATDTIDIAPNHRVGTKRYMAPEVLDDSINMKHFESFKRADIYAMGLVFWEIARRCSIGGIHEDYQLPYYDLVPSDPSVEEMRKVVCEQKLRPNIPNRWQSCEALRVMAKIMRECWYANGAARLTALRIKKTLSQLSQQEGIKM

Row | Structure (SMILES) | IC50 [1] [nM] | further results
1 | CN1CCN(CCC(=O)Nc2cncc(-c3cc(-c4cc(Cl)ccc4F)nc4c3OCCN4)c2)CC1=O [Example 46, N-{5-[6-(5-chloro-2-fluorophenyl)-2H,3H,4H-pyrido[3,2-b][1,4]oxazin-8-yl]pyridin-3-yl}-3-(4-methyl-3-oxopiperazin-1-yl)propanamide] | 5 to 10 | –
2 | COC(=O)c1cncc(-c2cc(-c3cccc(C)n3)nc3c2OCCN3)c1 [Example 39, Methyl 5-[6-(6-methylpyridin-2-yl)-2H,3H,4H-pyrido[3,2-b][1,4]oxazin-8-yl]pyridine-3-carboxylate] | 5 to 10 | –
3 | Fc1ccc(Cl)cc1-c1cc(-c2cnc3[nH]ccc3c2)c2c(n1)NCCO2 [Example 13, 6-(5-chloro-2-fluorophenyl)-8-{1H-pyrrolo[2,3-b]pyridin-5-yl}-2H,3H,4H-pyrido[3,2-b][1,4]oxazine] | 5 to 10 | –
4 | O=C(NCCN1CCCC1)c1cncc(-c2cc(-c3cc(Cl)ccc3F)nc3c2OCCN3)c1 [Example 26, 5-[6-(5-chloro-2-fluorophenyl)-2H,3H,4H-pyrido[3,2-b][1,4]oxazin-8-yl]-N-[2-(pyrrolidin-1-yl)ethyl]pyridine-3-carboxamide] | 5 to 10 | –
5 | Fc1ccc(Cl)cc1-c1cc(-c2cccnc2)c2c(n1)NCCO2 [Example 1, 3-[6-(5-chloro-2-fluorophenyl)-2H,3H,4H-pyrido[3,2-b][1,4]oxazin-8-yl]pyridine] | 5 to 10 | –
6 | CNC(=O)c1cncc(-c2cc(-c3cc(Cl)ccc3F)nc3c2OCCN3)c1 [Example 7, 5-[6-(5-chloro-2-fluorophenyl)-2H,3H,4H-pyrido[3,2-b][1,4]oxazin-8-yl]-N-methylpyridine-3-carboxamide] | 5 to 10 | –
7 | Oc1ccc(-c2cc(-c3cc(Cl)ccc3F)nc3c2OCCN3)cc1 [Example C2, 4-[6-(5-chloro-2-fluorophenyl)-2H,3H,4H-pyrido[3,2-b][1,4]oxazin-8-yl]phenol] | – | IC50 (Table 13, comparative examples, same in vitro assay, read-out: ALK5 IC50): 1710 nM; IC50 (summary statements in running text, read-out: IC50 / potency on ALK5): > 1700 nM
8 | O=C(NCCN1CCOCC1)c1cncc(-c2cc(-c3cc(Cl)ccc3F)nc3c2OCCN3)c1 [Example 11, 5-[6-(5-chloro-2-fluorophenyl)-2H,3H,4H-pyrido[3,2-b][1,4]oxazin-8-yl]-N-[2-(morpholin-4-yl)ethyl]pyridine-3-carboxamide] | 5 to 10 | –
9 | CN1CCN(CCC(=O)Nc2cncc(-c3cc(-c4cc(Cl)ccc4F)nc4c3OCCN4)c2)C(=O)C1 [Example 47, N-{5-[6-(5-chloro-2-fluorophenyl)-2H,3H,4H-pyrido[3,2-b][1,4]oxazin-8-yl]pyridin-3-yl}-3-(4-methyl-2-oxopiperazin-1-yl)propanamide] | 5 to 10 | –
10 | O=C(CCN1CCOCC1)Nc1cncc(-c2cc(-c3cc(Cl)ccc3F)nc3c2OCCN3)c1 [Example 9, N-{5-[6-(5-chloro-2-fluorophenyl)-2H,3H,4H-pyrido[3,2-b][1,4]oxazin-8-yl]pyridin-3-yl}-3-(morpholin-4-yl)propanamide] | 1 to 5 | –
11 | CN1CCC(COc2cncc(-c3cc(-c4cc(Cl)ccc4F)nc4c3OCCN4)c2)CC1 [Example 42, 3-[6-(5-chloro-2-fluorophenyl)-2H,3H,4H-pyrido[3,2-b][1,4]oxazin-8-yl]-5-[(1-methylpiperidin-4-yl)methoxy]pyridine] | 1 to 5 | –
12 | Fc1ccc(Cl)cc1-c1cc(-c2cncc(OCC3CCCO3)c2)c2c(n1)NCCO2 (stereo not drawn) [Example 34, 3-[6-(5-chloro-2-fluorophenyl)-2H,3H,4H-pyrido[3,2-b][1,4]oxazin-8-yl]-5-[(oxolan-2-yl)methoxy]pyridine] | 5 to 10 | –
13 | Fc1ccc(Cl)cc1-c1cc(-c2cncc(OC3CCOC3)c2)c2c(n1)NCCO2 (stereo not drawn) [Example 36, 3-[6-(5-chloro-2-fluorophenyl)-2H,3H,4H-pyrido[3,2-b][1,4]oxazin-8-yl]-5-(oxolan-3-yloxy)pyridine] | 1 to 5 | –
14 | NC(=O)c1cncc(-c2cc(-c3cc(Cl)ccc3F)nc3c2OCCN3)c1 [Example 6, 5-[6-(5-chloro-2-fluorophenyl)-2H,3H,4H-pyrido[3,2-b][1,4]oxazin-8-yl]pyridine-3-carboxamide] | 1 to 5 | –
15 | O=C(CCN(CCO)CCO)Nc1cncc(-c2cc(-c3cc(Cl)ccc3F)nc3c2OCCN3)c1 [Example 43, 3-[bis(2-hydroxyethyl)amino]-N-{5-[6-(5-chloro-2-fluorophenyl)-2H,3H,4H-pyrido[3,2-b][1,4]oxazin-8-yl]pyridin-3-yl}propanamide] | 1 to 5 | –

Second part, led by results:

Row | IC50 [1] [nM] | Structure (SMILES) | further results
16 | ≤ 1 | CN(C)CCCNC(=O)c1cncc(-c2cc(-c3cc(Cl)ccc3F)nc3c2OCCN3)c1 [Example 21, 5-[6-(5-chloro-2-fluorophenyl)-2H,3H,4H-pyrido[3,2-b][1,4]oxazin-8-yl]-N-[3-(dimethylamino)propyl]pyridine-3-carboxamide] | –
17 | 1 to 5 | O=C(CCCN1CCNCC1)Nc1cncc(-c2cc(-c3cc(Cl)ccc3F)nc3c2OCCN3)c1 [Example 33, N-{5-[6-(5-chloro-2-fluorophenyl)-2H,3H,4H-pyrido[3,2-b][1,4]oxazin-8-yl]pyridin-3-yl}-4-(piperazin-1-yl)butanamide] | –
18 | 1 to 5 | O=C(NCCN1CCNCC1)c1cncc(-c2cc(-c3cc(Cl)ccc3F)nc3c2OCCN3)c1 [Example 20, 5-[6-(5-chloro-2-fluorophenyl)-2H,3H,4H-pyrido[3,2-b][1,4]oxazin-8-yl]-N-[2-(piperazin-1-yl)ethyl]pyridine-3-carboxamide] | –
19 | 1 to 5 | CN1CCN(CCNC(=O)c2cncc(-c3cc(-c4cc(Cl)ccc4F)nc4c3OCCN4)c2)CC1 [Example 37, 5-[6-(5-chloro-2-fluorophenyl)-2H,3H,4H-pyrido[3,2-b][1,4]oxazin-8-yl]-N-[2-(4-methylpiperazin-1-yl)ethyl]pyridine-3-carboxamide] | –
20 | 1 to 5 | Oc1cncc(-c2cc(-c3cc(Cl)ccc3F)nc3c2OCCN3)c1 [Example 29, 5-[6-(5-chloro-2-fluorophenyl)-2H,3H,4H-pyrido[3,2-b][1,4]oxazin-8-yl]pyridin-3-ol] | –
21 | 1 to 5 | Fc1ccc(Cl)cc1-c1cc(-c2cncc3ccccc23)c2c(n1)NCCO2 [Example 2, 4-[6-(5-chloro-2-fluorophenyl)-2H,3H,4H-pyrido[3,2-b][1,4]oxazin-8-yl]isoquinoline] | –
22 | 1 to 5 | CNCCNC(=O)c1cncc(-c2cc(-c3cc(Cl)ccc3F)nc3c2OCCN3)c1 [Example 23, 5-[6-(5-chloro-2-fluorophenyl)-2H,3H,4H-pyrido[3,2-b][1,4]oxazin-8-yl]-N-[2-(methylamino)ethyl]pyridine-3-carboxamide] | –
23 | 1 to 5 | COC(=O)c1cncc(-c2cc(-c3cc(Cl)ccc3F)nc3c2OCCN3)c1 [Example 19, Methyl 5-[6-(5-chloro-2-fluorophenyl)-2H,3H,4H-pyrido[3,2-b][1,4]oxazin-8-yl]pyridine-3-carboxylate] | –
24 | 1 to 5 | O=C(NCCCN1CCNCC1)c1cncc(-c2cc(-c3cc(Cl)ccc3F)nc3c2OCCN3)c1 [Example 28, 5-[6-(5-chloro-2-fluorophenyl)-2H,3H,4H-pyrido[3,2-b][1,4]oxazin-8-yl]-N-[3-(piperazin-1-yl)propyl]pyridine-3-carboxamide] | –
25 | 1 to 5 | Cc1csc(-c2cc(-c3cncc4ccccc34)c3c(n2)NCCO3)n1 [Example 4, 4-[6-(4-methyl-1,3-thiazol-2-yl)-2H,3H,4H-pyrido[3,2-b][1,4]oxazin-8-yl]isoquinoline] | –
26 | 1 to 5 | Nc1cncc(-c2cc(-c3cc(Cl)ccc3F)nc3c2OCCN3)c1 [Example 5, 5-[6-(5-chloro-2-fluorophenyl)-2H,3H,4H-pyrido[3,2-b][1,4]oxazin-8-yl]pyridin-3-amine] | –
27 | ≤ 1 | CNCCC(=O)Nc1cncc(-c2cc(-c3cc(Cl)ccc3F)nc3c2OCCN3)c1 [Example 22, N-{5-[6-(5-chloro-2-fluorophenyl)-2H,3H,4H-pyrido[3,2-b][1,4]oxazin-8-yl]pyridin-3-yl}-3-(methylamino)propanamide] | –
28 | 1 to 5 | O=C(CCN1CCNCC1)Nc1cncc(-c2cc(-c3cc(Cl)ccc3F)nc3c2OCCN3)c1 [Example 16, N-{5-[6-(5-chloro-2-fluorophenyl)-2H,3H,4H-pyrido[3,2-b][1,4]oxazin-8-yl]pyridin-3-yl}-3-(piperazin-1-yl)propanamide] | –
29 | 1 to 5 | CN(CCC(=O)Nc1cncc(-c2cc(-c3cc(Cl)ccc3F)nc3c2OCCN3)c1)C1COC1 [Example 45, N-{5-[6-(5-chloro-2-fluorophenyl)-2H,3H,4H-pyrido[3,2-b][1,4]oxazin-8-yl]pyridin-3-yl}-3-[methyl(oxetan-3-yl)amino]propanamide] | –
30 | 1 to 5 | CN1CCN(CCC(=O)Nc2cncc(-c3cc(-c4cc(Cl)ccc4F)nc4c3OCCN4)c2)CC1 [Example 38, N-{5-[6-(5-chloro-2-fluorophenyl)-2H,3H,4H-pyrido[3,2-b][1,4]oxazin-8-yl]pyridin-3-yl}-3-(4-methylpiperazin-1-yl)propanamide] | –
31 | ≤ 1 | COc1cncc(-c2cc(-c3cc(Cl)ccc3F)nc3c2OCCN3)c1 [Example 25, 3-[6-(5-chloro-2-fluorophenyl)-2H,3H,4H-pyrido[3,2-b][1,4]oxazin-8-yl]-5-methoxypyridine] | –
32 | ≤ 1 | O=C(CCN1CCCCC1)Nc1cncc(-c2cc(-c3cc(Cl)ccc3F)nc3c2OCCN3)c1 [Example 18, N-{5-[6-(5-chloro-2-fluorophenyl)-2H,3H,4H-pyrido[3,2-b][1,4]oxazin-8-yl]pyridin-3-yl}-3-(piperidin-1-yl)propanamide] | –
